In patent US6069132A, “Phosphazole compounds” (priority 1997, dated 2000):
≈ marks a conversion by molar mass, not a printed value. Where two headings read alike, the source gives them in different places.

Columns and labels:
HSV-1 = HSV-1 CPE assay in Vero cells; format: cell-based; settings: Human alphaherpesvirus 1, Vero; Table 4
HSV-2 = HSV-2 CPE assay in Vero cells; format: cell-based; settings: Human alphaherpesvirus 2, Vero; Table 4
[1] = Cytotoxicity on growing Vero cells (MTS); format: cell-based; settings: african green monkey, Table 4, 50% inhibition of logphase growing cells, read-out: TC50 Growing Vero
Method: (§1) Cell Culture. Vero (African Green Monkey kidney cells) and MRC-5 (diploid Human Embryonic Lung fibroblasts) cells were obtained from the American Type Culture Collection (ATCC) and were grown in minimal essential medium (MEM) with Earl's salts and glutamine (GIBCO BRL, Life Technologies, Inc.) with 10% heat inactivated fetal bovine serum (GIBCO BRL) and penicillin (100 μg/mL)/streptomycin (100 μg/mL).
(§2) Cytotoxicity Analysis. The cytotoxicity of the compound was assayed using few the CellTiter 96™ Aqueous Non-Radioactive Cell Proliferation (MTS) Assay (Promega). Briefly, viable cell number was determined by trypan blue staining and cells (MRC-5 and Vero) were resuspended in minimal essential medium (MEM) supplemented with 10% FBS (GIBCO). Eighty microliters of cell suspension (1.7×10^4 cells/well) was dispensed onto a 96-well microtiter plates. At this time 20 μL of drug (or control) was added to appropriate wells. Each concentration was assayed in quadruplicate. The plates were incubated at 37° C. in a humidified 5% CO2 atmosphere for 4 days and MTS assay was performed according to the manufacturer's instructions. The average absorbence of the sample was graphed for each concentration and the data obtained was used to calculate TC50 (the concentration necessary to give one-half maximum growth) for each compound.

[2] = Cytotoxicity on growing THP-1 cells (MTS assay); format: cell-based, human; settings: human, thp-1 cells; Table 2; drug dose required to inhibit logphase growing cells by 50%; read-out: TC50 Growing THP-1
Method: Cytotoxicity Analysis. The cytotoxicity of the compounds were assayed using the CellTiter 96™ Aqueous Non-Radioactive Cell Proliferation (MTS) Assay kit obtained from Promega (Madison, Wis.) following the instructions provided by the supplier. The viable cell number was determined by trypan blue staining and cells (THP-1) were resuspended in PRMI supplemented with 10% FBS (GIBCO). Eighty microliters of cell suspension (1.7×10^4cells/well) was dispensed onto a 96-well microtiter plates. At this time 20 μL of drug (or control) was added to appropriate wells. Each concentration was assayed in quadruplicate. The plates were incubated at 37° C. in a humidified 5% CO2 atmosphere for 4 days and MTS assay […] for each concentration and the data obtained was used to calculate TC50 (the concentration of the compound necessary to inhibit the cell growth by 50%) for each compound.

[3] = Cytotoxicity on static MRC-5 cells; format: cell-based; settings: human, Table 4, 50% cell death (static cells), read-out: TC50 Static MRC-5
Method: as §1, §2

HCMV (Town strain) = assay: HCMV plaque reduction (CPE) assay in MRC-5 cells; format: cell-based, human cytomegalovirus
Method: The adenine analog phosphazole (compound T70241) was assayed for antiviral activity using a HCMV plaque reduction assay, in accordance with known methods such as that described in U.S. Pat. No. 5,446,045.
as §1
CMV Cytopathic Effect (CPE) Assay. Assays were performed essentially as described by Lewis et al. (111), which report is incorporated herein by reference. MRC-5 cells (100,000 cells/well) were seeded in 24-well plates overnight. Medium was then removed and wells were rinsed once with 250 μL of 2% FCS-MEM before adding 40-50 pfu of HCMV (Town strain) to each well. After 2 hours of virus adsorption, the medium was removed and the cells were rinsed once with 2% FCS-MEM. Varying concentrations of the phosphazole compound in the culture medium (1 mL) was then added to appropriate wells and plates were incubated for 5-6 days at 37° C. in a humidified 5% CO2 atmosphere. Each concentration was tested in duplicate wells.
The extent of the plaque reduction was quantitated by removing the media and adding 200 μL of 0.1% crystal violet in 20% methanol to all wells. The crystal violet was then removed after 10 min staining at room temperature by rinsing in the sink with tap water and the plates dried overnight. The plaques were then counted using a Nikon inverted microscope.

[4] = Cytotoxicity on growing MRC-5 cells (MTS); format: cell-based, human; settings: human, mrc-5 cells
Method: as §1, §2

| Structure (SMILES) | IC50 (HSV-1) [µg/mL] | IC50 (HSV-2) [µg/mL] | CC50 at 96 h [1] [µg/mL] | CC50 at 96 h [2] [µg/mL] | CC50 at 96 h [3] [µg/mL] | IC50 (HCMV (Town strain); Human betaherpesvirus 5, MRC5, read-out: IC50 HCMV) [µg/mL] | CC50 at 96 h ([4]; Table 4, 50% inhibition of logphase growing cells, read-out: TC50 Growing MRC-5) [µg/mL] | inhibition of HCMV virus production (HCMV (Town strain); 0.01-10 μg/mL) | IC50 (HCMV (Town strain); Human betaherpesvirus 5, MRC5, read-out: 50% inhibitory concentration (IC50), HCMV induced plaques) [µg/mL] | IC50 (HCMV (Town strain); Human betaherpesvirus 5, MRC5, Table 4, read-out: IC50 HCMV) [µg/mL] | CC50 at 96 h ([4]; FIG. 9A, four day period, read-out: TC50, growing MRC-5 cells) [µg/mL] |
| --- | --- | --- | --- | --- | --- | --- | --- | --- | --- | --- | --- |
| CCCCCn1cpc2ncnc(N)c21 (stereo not shown) [T70254, 7-Amino-1-(n-pentyl)-1,3-azaphospholo[4,5-d]pyrimidine] | > 50 | > 50 | 8.18 (≈ 36.8 µM) | 14.7 (≈ 66.2 µM) | 9.25 (≈ 41.6 µM) | > 50 | 17.9 (≈ 80.8 µM) |  |  |  |  |
| Nc1ncnc2pc[nH]c12 (stereo not shown) [T70241, 7-amino-1H-1,3-azaphospholo[4,5-d]pyrimidine] | > 50 | > 50 | > 50 | > 1000 | > 50 |  |  | nearly logrithmic increase in inhibition of virus production | ~8.25 (≈ 54.2 µM) | 8.08 (≈ 53.1 µM) | > 50 |
